According to patent US20120122727A1, “IN VITRO METHOD FOR PREDICTING WHETHER A COMPOUND IS GENOTOXIC IN VIVO” (priority 2009, published 2012):

Legend:
[1] = test system: primary mouse hepatocytes; assay: Gene expression in primary mouse hepatocytes, GTX vs non-GTX (four-gene classifier, 24 h)
Experimental: Hepatocyte cells were incubated and exposed to a compound for 24 h before being harvested for RNA isolation.
The results of the gene expression analysis may then be fed into a statistical software package such as R, Splus, or Microsoft Excel. […] If none or only one of these criteria were met, no point was scored.
For each of the four genes mentioned in the table (1700007K13RIK, GAS2L3, SPC25, DDIT4L), a statistical comparison was made between the normalized expression data for these genes. […] If none or only one of these criteria were met, no point was scored.
For each compound, the sum of the scores for four genes is taken. If this score is 0, a compound can be believed not to be genotoxic. If this score is 1, 2, 3 or 4, a compound is genotoxic.
If none or only one of these criteria were met, no point was scored.

[2] = test system: primary mouse hepatocytes; assay: Gene expression (Affymetrix Mouse Genome 430 2.0) in primary mouse hepatocytes, true vs false GTX, 24 h and 48 h

Aflatoxin B1 [AFB1]
Ratios of gene expression treated/untreated 1700007K13RIK [1]: 2.912
Ratios of gene expression treated/untreated DDIT4L [1]: 1.616
Ratios of gene expression treated/untreated GAS2L3 [1]: 1.234
Ratios of gene expression treated/untreated SPC25 [1]: 1.523
Total score [1]: 4
score 1700007K13RIK [1]: 1
score DDIT4L [1]: 1
score GAS2L3 [1]: 1
score SPC25 [1]: 1
Gene expression AA561726 average [2]: −1.481
Gene expression AF000969 average [2]: −2.346
Gene expression AF022072 average [2]: −0.9913
Gene expression AF033112 average [2]: 1.033
Gene expression AF055573 average [2]: −2.3744
Gene expression AF069954 average [2]: 0.2361
Gene expression AF297615 average [2]: 2.175
Gene expression AF335325 average [2]: 1.3645
Gene expression AI594683 average [2]: 1.508
Gene expression AI747296 average [2]: −1.533
Gene expression AK005731 average [2]: 2.2191
Gene expression AK007854 average [2]: 1.5416
Gene expression AK010447 average [2]: −1.2768
Gene expression AK010738 average [2]: 0.6579
Gene expression AK014608 average [2]: 1.186
Gene expression AK017734 average [2]: 0.4796
Gene expression AK018383 average [2]: 0.4069
Gene expression AK019979 average [2]: −2.271
Gene expression AV095209 average [2]: −0.6169
Gene expression AV141095 average [2]: −1.192
Gene expression AV173869 average [2]: −0.8814
Gene expression AV216768 average [2]: −1.282
Gene expression AV219418 average [2]: 0.8603
Gene expression AV221299 average [2]: −0.7873
Gene expression AV246296 average [2]: 1.098
Gene expression AV251625 average [2]: 0.5471
Gene expression AV254764 average [2]: 1.543
Gene expression AV327248 average [2]: 1.4639
Gene expression BB009155 average [2]: 1.3686
Gene expression BB027848 average [2]: −0.004367
Gene expression BB043558 average [2]: 1.629
Gene expression BB046347 average [2]: 0.5079
Gene expression BB140436 average [2]: −0.4938
Gene expression BB204486 average [2]: −1.371
Gene expression BB223872 average [2]: 0.5263
Gene expression BB246912 average [2]: −1.2439
Gene expression BB275142 average [2]: 0.5302
Gene expression BB458460 average [2]: −1.132
Gene expression BB463610 average [2]: 1.2472
Gene expression BB730977 average [2]: −0.256
Gene expression BB743970 average [2]: 0.3813
Gene expression BB770528 average [2]: 0.8678
Gene expression BB781615 average [2]: 0.9722
Gene expression BC003284 average [2]: 0.7036
Gene expression BC004827 average [2]: −1.255
Gene expression BC005552 average [2]: −0.7309
Gene expression BC006713 average [2]: 0.942
Gene expression BC010318 average [2]: −0.9565
Gene expression BC012247 average [2]: 0.7954
Gene expression BC012955 average [2]: −1.403
Gene expression BC013893 average [2]: 0.3479
Gene expression BC017615 average [2]: −2.585
Gene expression BC019379 average [2]: −1.263
Gene expression BC019882 average [2]: 1.2329
Gene expression BC021352 average [2]: 1.59
Gene expression BC022148 average [2]: 1.0426
Gene expression BC025169 average [2]: −1.03
Gene expression BC026131 average [2]: −0.4476
Gene expression BC027026 average [2]: 0.6995
Gene expression BC027121 average [2]: 0.9799
Gene expression BC027185 average [2]: 0.0776
Gene expression BE956581 average [2]: 1.7703
Gene expression BF719766 average [2]: 1.1094
Gene expression BG065754 average [2]: 0.6884
Gene expression BG066491 average [2]: −1.6995
Gene expression BG076151 average [2]: 0.4779
Gene expression BG076333 average [2]: −0.3573
Gene expression BG797099 average [2]: 1.027
Gene expression BG967046 average [2]: 0.6249
Gene expression BI651416 average [2]: 1.979
Gene expression BI966443 average [2]: 0.699
Gene expression BM198879 average [2]: 1.579
Gene expression BM200015 average [2]: 0.9342
Gene expression BM230508 average [2]: 0.637
Gene expression BM936480 average [2]: 0.1463
Gene expression BQ174991 average [2]: −0.6262
Gene expression L21027 average [2]: −1.868
Gene expression NM_007556 average [2]: −0.9667
Gene expression NM_007980 average [2]: 0.412
Gene expression NM_007987 average [2]: 0.8772
Gene expression NM_008522 average [2]: 2.271
Gene expression NM_008935 average [2]: −1.772
Gene expression NM_009897 average [2]: 1.054
Gene expression NM_011075 average [2]: 1.1557
Gene expression NM_011176 average [2]: 1.3047
Gene expression NM_011316 average [2]: 0.6494
Gene expression NM_012006 average [2]: 1.7541
Gene expression NM_013642 average [2]: −0.2528
Gene expression NM_013738 average [2]: 0.4146
Gene expression NM_013929 average [2]: 0.7449
Gene expression NM_018881 average [2]: 0.2001
Gene expression NM_019738 average [2]: −2.37
Gene expression NM_030697 average [2]: 1.271
Gene expression NM_053122 average [2]: −2.304
Gene expression NM_134147 average [2]: −1.51
Gene expression NM_134188 average [2]: −0.159
Gene expression X62701 average [2]: −0.6611
Gene expression data AF000969 (Cadps2) [2]: −2.17
Gene expression data AF022072 (Grb10) [2]: −1.2526
Gene expression data AF065917 (Lif) [2]: 0.6896
Gene expression data AF204959 (Cyp3a25 /// LOC622249) [2]: 1.404
Gene expression data AF297615 (Ggta1) [2]: 1.1224
Gene expression data AI594683 (Dmn) [2]: 1.048
Gene expression data AI596632 (Ptprg /// LOC632664) [2]: −1.9945
Gene expression data AI987929 (Ndrg1) [2]: −0.8074
Gene expression data AK004419 (Fbxl17) [2]: −1.365
Gene expression data AK005731 (1700007K13Rik) [2]: 2.2462
Gene expression data AK007766 (1810044A24Rik) [2]: −1.554
Gene expression data AK007854 (1810053B23Rik) [2]: 1.391
Gene expression data AK009736 (Gpr137b /// LOC664862 /// LOC673335) [2]: −0.5076
Gene expression data AK010447 (Smyd3) [2]: −1.2553
Gene expression data AK014608 (4632434l11Rik) [2]: 1.765
Gene expression data AK019979 (2610528E23Rik) [2]: −2.537
Gene expression data AV095209 (Mthfd1l) [2]: −0.8398
Gene expression data AV141095 (1110033M05Rik) [2]: −1.295
Gene expression data AV173571 (1700106N22Rik) [2]: −1.239
Gene expression data AV219418 (Ldhb) [2]: 0.2817
Gene expression data AV223474 (Zdhhc14) [2]: −1.025
Gene expression data AV298304 (Homez) [2]: 1.03
Gene expression data AV327248 (Zfp365 /// LOC674611) [2]: 0.8055
Gene expression data AV377066 (9130221J18Rik) [2]: 1.0883
Gene expression data AW240761 (Tbc1d5) [2]: −1.118
Gene expression data AW543460 (Pard3) [2]: −0.2756
Gene expression data AW543723 [2]: 1.427
Gene expression data AW986246 (Maoa) [2]: −0.3385
Gene expression data BB027848 (4732466D17Rik) [2]: −0.016
Gene expression data BB043558 (9230114K14Rik) [2]: 1.671
Gene expression data BB275142 (AW456874) [2]: 1.009
Gene expression data BB308836 (Ppm1l) [2]: −1.077
Gene expression data BB318221 (Zdhhc14) [2]: −1.0808
Gene expression data BB463610 (4632434l11Rik) [2]: 1.7658
Gene expression data BB526605 (Mipol1) [2]: −0.7181
Gene expression data BB770528 (Rai2) [2]: 0.7477
Gene expression data BB821363 (Scfd2) [2]: −1.354
Gene expression data BC004827 (Psat1) [2]: −1.0032
Gene expression data BC008626 (Icam1) [2]: 1.4158
Gene expression data BC010462 (BC010462) [2]: 0.9985
Gene expression data BC012247 (Dcxr) [2]: 0.3677
Gene expression data BC012260 (Psmf1) [2]: 1.2375
Gene expression data BC015270 (Hist2h3c2) [2]: 1.093
Gene expression data BC016073 (Cdkal1) [2]: −1.1
Gene expression data BC016265 (Ube2e2) [2]: −0.8797
Gene expression data BC019882 (Acaa1b) [2]: 0.4654
Gene expression data BC025501 (Aaas) [2]: 1.14
Gene expression data BC025837 (Sbk1) [2]: 0.4694
Gene expression data BC025915 (Cova1) [2]: −0.642
Gene expression data BC026422 (Tgm1) [2]: 0.8843
Gene expression data BF719766 (Thyn1) [2]: 0.3892
Gene expression data BG065754 (Ccng1) [2]: 0.8383
Gene expression data BG066903 (Kif16b) [2]: −0.5074
Gene expression data BG069873 (Gnb1l) [2]: 0.7276
Gene expression data BG070887 (Gtdc1) [2]: −1.473
Gene expression data BG076151 (Ppm1d) [2]: 0.6026
Gene expression data BG261907 (Large) [2]: −1.119
Gene expression data BI651416 (Cdc42bpg) [2]: 1.8011
Gene expression data BI660702 (Ell3) [2]: 0.4068
Gene expression data BM198879 (Ercc5) [2]: 1.61
Gene expression data BM230508 (A030007D23Rik) [2]: 0.5919
Gene expression data NM_007987 (Fas) [2]: 0.628
Gene expression data NM_008522 (Ltf) [2]: 1.055
Gene expression data NM_008576 (Abcc1) [2]: −0.1885
Gene expression data NM_011176 (St14) [2]: 1.289
Gene expression data NM_011316 (Saa4) [2]: 0.2733
Gene expression data NM_012006 (Acot1) [2]: 1.251
Gene expression data NM_013866 (Zfp385) [2]: 0.9513
Gene expression data NM_018770 (Igsf4a) [2]: −0.439
Gene expression data NM_021451 (Pmaip1) [2]: 1.1
Gene expression data NM_025770 (Atg10) [2]: −1.128
Gene expression data NM_028803 (Gbe1) [2]: −1.004
Gene expression data NM_030697 (Ankrd47) [2]: 1.8143
Gene expression data NM_053168 (Trim11) [2]: 1.268
Gene expression data NM_134188 (Acot2) [2]: 0.01207
Gene expression data Y15910 (Diap2) [2]: −1.889
